# Reference: patent US7098333B2, “Pyrrolo[2,3-d]pyrimidine and their use as purinergic receptor antagonists” (Vernalis Research Limited, priority 2001, dated 2006)
# Columns and labels:
# [1] = biological target: human adenosine A2A receptors (Homo sapiens, UniProt P29274); assay: Binding affinities at hA2A receptors, displacement of [3H]-CGS 21680; details: displacement of radioligand [3H]-CGS 21680, in vitro
# adenosine A2A receptor = details: cited from earlier work
# [2] = cited from earlier work
# Chain of human adenosine A2A receptors (P29274 whole entry): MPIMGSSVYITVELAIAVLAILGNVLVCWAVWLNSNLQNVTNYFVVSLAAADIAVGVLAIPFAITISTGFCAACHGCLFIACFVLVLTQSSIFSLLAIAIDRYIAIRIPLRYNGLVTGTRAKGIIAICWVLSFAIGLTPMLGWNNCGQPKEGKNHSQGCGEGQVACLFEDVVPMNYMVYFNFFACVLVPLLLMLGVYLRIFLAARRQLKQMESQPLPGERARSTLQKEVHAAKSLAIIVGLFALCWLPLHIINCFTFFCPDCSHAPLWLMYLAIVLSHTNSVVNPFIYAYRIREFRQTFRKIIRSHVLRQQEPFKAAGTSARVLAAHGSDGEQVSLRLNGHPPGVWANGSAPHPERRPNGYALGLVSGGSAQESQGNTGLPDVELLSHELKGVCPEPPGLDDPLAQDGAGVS
compound,measurement,setting,value
"Nc1nc(-c2ccco2)c2cc[nH]c2n1 [Example 8, 4-(2-furyl)-1H-pyrrolo[2,3-d]pyrimidine-2-amine]",Ki,[1],272 nM
"CN(C)c1nc(-c2ccco2)c2ccn(Cc3ccccc3)c2n1 [Example 3, 7-benzyl-N,N-dimethyl-4-(2-furyl)-7H-pyrrolo[2,3-d]pyrimidine-2-amine]",melting point,,91.7 to 92.3 °C
"OC[C@H]1CCCN1c1nc(-c2ccco2)c2cc[nH]c2n1 [Example 6, (2R)-2-(2-hydroxymethylpyrrolidin-1-yl)-4-(2-furyl)-1H-pyrrolo[2,3-d]pyrimidine]",melting point,,174.8 to 175.6 °C
"COc1ccc(CNc2nc(-c3ccco3)c3cc[nH]c3n2)cc1OC [Example 7, N-(3,4-dimethoxybenzyl)-4-(2-furyl)-1H-pyrrolo[2,3-d]pyrimidine-2-amine]",melting point,,154.8 to 154.9 °C
"CN(C)c1nc(-c2ccco2)c2ccn(C(=O)c3ccccc3)c2n1 [Example 5, 7-benzoyl-N,N-dimethyl-4-(2-furyl)-7H-pyrrolo[2,3-d]pyrimidine-2-amine]",melting point,,108.3 to 109.1 °C
"Nc1nc(-c2ccco2)c2ccn(Cc3ccccc3F)c2n1 [Example 13, 7-(2-fluorobenzyl)-4-(2-furyl)-7H-pyrrolo[2,3-d]pyrimidine-2-amine]",Ki,[1],16 nM
"Clc1nc(-c2ccco2)c2cc[nH]c2n1 [Example 2, 2-chloro-4-(2-furyl)-1H-pyrrolo[2,3-d]pyrimidine]",melting point,,265.8 to 266.3 °C
"CCCn1c(=O)c2c(nc(/C=C/c3ccc(OC)c(OC)c3)n2C)n(CCC)c1=O [KF 17837, (E)-8-(3,4-dimethoxystyryl)-1,3-dipropyl-7-methylxanthine]",anticataleptic effects of a subthreshold dose of L-DOPA plus benserazide,adenosine A2A receptor; combination with L-DOPA plus benserazide,potentiated
same,catalepsy induced by haloperidol and reserpine,adenosine A2A receptor; in vivo,reduced
same,cataleptic responses induced by intracerebroventricular CGS 21680,adenosine A2A receptor; oral administration,significantly ameliorated
"Cn1c(=O)c2[nH]cnc2n(C)c1=O [Theophylline, 1,3-dimethylxanthine]",mean objective disability scores,"[2]; 150 mg/day oral, up to 12 weeks, 15 Parkinsonian patients",significant improvements
same,patients reporting moderate or marked subjective improvement,"[2]; of 15 Parkinsonian patients, 150 mg/day oral, up to 12 weeks",11
same,serum theophylline levels,"[2]; slow release oral preparation 150 mg/day, after one week, 15 Parkinsonian patients",4.44 mg/L
"CN(C)c1nc(-c2ccco2)c2ccn(Cc3ccccc3F)c2n1 [Example 11, N,N-dimethyl-7-(2-fluorobenzyl)-4-(2-furyl)-7H-pyrrolo[2,3-d]pyrimidine-2-amine]",melting point,,115.1 to 115.2 °C
"CN(C)c1nc(-c2ccco2)c2cc[nH]c2n1 [Example 1, N,N-dimethyl-4-(2-furyl)-1H-pyrrolo[2,3-d]pyrimidine-2-amine]",Ki,[1],60 nM
same,melting point,,196.9 to 197.1 °C
